From ChEMBL document CHEMBL1201862, “PubChem BioAssay data set” (2004)
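Step 1: Grow cells in 96-well plates. Step 2: Expose to compound for 48 hours at 5 concentrations. Step 3: Interpolate endpoints linearly; if unreached, use highest concentration. At the GI50, growth is halved.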 Activity calls are given as the source filed them. Rule as the data show it: active = GI50 up to about 1.1 µM and inactive = higher.

Tests used:
Test in all cases: DTP human tumour cell line panel, 48 h
[1] = tested on: 786-0
[2] = tested on: CCRF-CEM
[3] = tested on: DU-145
[4] = tested on: HCC 2998
[5] = tested on: HCT-15
[6] = tested on: Hs-578T
[7] = tested on: LOX IMVI
[8] = tested on: M14
[9] = tested on: MCF7
[10] = tested on: Malme-3M
[11] = tested on: NCI-H226
[12] = tested on: OVCAR-5
[13] = tested on: SK-MEL-2
[14] = tested on: SK-OV-3
[15] = tested on: SNB-19
[16] = tested on: SR
[17] = tested on: SW-620
[18] = tested on: TK-10
[19] = tested on: NCI-H522
[20] = tested on: SNB-75

Measured: GI50

COc1cc(C#CC(=O)OC/C=C/c2ccc3c(c2)OCO3)cc(OC)c1OC
24.9 µM: [5]
inactive: [1] 29.8 µM | [2] 18.9 µM | [3] 42.6 µM | [4] 26.2 µM | [6] 22.2 µM | [7] 20.1 µM | [8] 24 µM | [9] 19.5 µM | [10] 20.7 µM | [11] 21.4 µM | [12] 35.6 µM | [13] 10 µM | [14] 27.6 µM | [15] 42.9 µM | [16] 16.7 µM | [17] 27.5 µM | [18] 21.4 µM

O=C(c1ccccc1F)c1c(NCc2ccccc2)c(=O)c1=O
> 100 µM: [5]
inactive: [1] > 100 µM | [2] > 100 µM | [3] > 100 µM | [4] > 100 µM | [6] > 100 µM | [7] > 100 µM | [8] > 100 µM | [9] > 100 µM | [10] > 100 µM | [11] > 100 µM | [19] 19.9 µM | [12] > 100 µM | [13] > 100 µM | [14] > 100 µM | [15] > 100 µM | [20] > 100 µM | [17] > 100 µM | [18] > 100 µM

O=C1C=CC2(O[C@H](c3ccccc3)[C@@H](c3ccccc3)O2)C(SC(=O)c2ccccc2)C1 (some centres not stated)
active: [1] 0.385 µM | [9] 0.371 µM | [16] 0.256 µM | [17] 0.288 µM
inactive: [3] 3.34 µM | [6] 1.62 µM | [7] 1.12 µM | [8] 1.33 µM | [10] 2.27 µM | [11] 1.74 µM | [12] 1.69 µM | [13] 1.72 µM | [14] 2.32 µM | [15] 2.19 µM | [20] 2.09 µM | [18] 1.68 µM
0.673 µM: [5]

C[C@@H]1CCC[C@]2(C)O[C@H]2CC[C@@](C)(O)[C@@H]2CC3=C(CO)C(=O)O[C@H]3[C@H]1O2
> 50 µM: [5]
inactive: [1] > 50 µM | [2] 34.1 µM | [3] > 50 µM | [4] > 50 µM | [6] > 50 µM | [7] > 50 µM | [8] > 50 µM | [9] > 50 µM | [11] > 50 µM | [19] 28.4 µM | [12] > 50 µM | [13] > 50 µM | [14] > 50 µM | [15] > 50 µM | [20] > 50 µM | [17] > 50 µM | [18] > 50 µM

CN[C@@H](C)[C@H](OP(=O)(O)OC1[C@@H](O)[C@H](O)C(O)[C@H](O)[C@@H]1O)c1ccccc1 (some centres not stated)
> 100 µM: [5]
inactive: [1] > 100 µM | [2] > 100 µM | [3] > 100 µM | [4] > 100 µM | [6] > 100 µM | [8] > 100 µM | [9] > 100 µM | [10] > 100 µM | [11] > 100 µM | [19] > 100 µM | [12] > 100 µM | [13] > 100 µM | [14] > 100 µM | [15] > 100 µM | [20] > 100 µM | [17] > 100 µM | [18] > 100 µM

CC(Br)CN(CC(C)Br)c1ccc2c(c1)Cc1ccccc1-2 (configuration not stated)
13.1 µM: [5]
inactive: [1] 11.1 µM | [2] 2.03 µM | [3] 11.1 µM | [6] 13.4 µM | [7] 8.11 µM | [8] 11.6 µM | [9] 6.49 µM | [10] 11.7 µM | [19] 6.9 µM | [12] 18.9 µM | [13] 15.7 µM | [14] 16 µM | [15] 13.6 µM | [20] 12.2 µM | [16] 1.76 µM | [17] 14.2 µM | [18] 12.3 µM

CCC[C@H](C)C[C@H](C)C[C@H](C)/C=C(\C)[C@@H](O)[C@@H](C)C(=O)CC
21 µM: [5]
inactive: [1] 20.1 µM | [2] 24.3 µM | [3] 23.5 µM | [4] 17 µM | [6] 25 µM | [7] 20.4 µM | [8] 19.8 µM | [9] 21.3 µM | [10] 18.5 µM | [11] 21 µM | [19] 17.6 µM | [12] 19.9 µM | [13] 24.9 µM | [14] 36.2 µM | [15] 20.3 µM | [20] 49.9 µM | [17] 20.3 µM | [18] 23.2 µM

COc1ccc(P2(=S)Oc3ccccc3-c3ccccc3O2)cc1
inactive: [11] 7.1 µM | [12] > 100 µM
0.48 µM: [5]
active: [1] 0.531 µM | [2] 0.356 µM | [3] 0.542 µM | [4] 0.443 µM | [6] 0.466 µM | [7] 0.661 µM | [8] 0.574 µM | [9] 0.377 µM | [10] 0.438 µM | [19] 0.193 µM | [13] 0.596 µM | [15] 0.521 µM | [20] 0.337 µM | [17] 0.423 µM

O=C(/C=C(\C(=O)c1cccs1)c1cccs1)c1ccc(C(=O)/C=C(\C(=O)c2cccs2)c2cccs2)cc1
inactive: [1] > 100 µM | [2] > 100 µM | [3] > 100 µM | [4] > 100 µM | [6] > 100 µM | [8] > 100 µM | [9] > 100 µM | [11] > 100 µM | [13] > 100 µM | [14] > 100 µM | [15] > 100 µM | [20] > 100 µM | [16] > 100 µM | [17] > 100 µM | [18] > 100 µM
> 100 µM: [5]

Cc1ccc2c(c1)C(O)(c1ccccc1)CCS2 (configuration not stated)
inactive: [1] 32.5 µM | [3] 46.3 µM | [6] 34.1 µM | [7] 19.9 µM | [8] 25.4 µM | [9] 39.4 µM | [10] 32.9 µM | [11] 27.5 µM | [19] 19.7 µM | [12] 27.6 µM | [13] 25.2 µM | [14] > 100 µM | [15] 59.6 µM | [20] 48.2 µM | [16] 18.3 µM | [17] 31 µM | [18] 32.1 µM
19.5 µM: [5]

O=[N+]([O-])C(C(Cl)=C(Cl)Cl)=C(N1CCCCC1)N1CCCCC1
inactive: [1] > 100 µM | [2] 41.9 µM | [3] > 100 µM | [4] > 100 µM | [6] 13.8 µM | [7] 55 µM | [8] > 100 µM | [9] 90.4 µM | [10] 39.5 µM | [11] > 100 µM | [12] > 100 µM | [14] > 100 µM | [15] 1.95 µM | [20] > 100 µM | [16] 33.8 µM | [17] > 100 µM | [18] > 100 µM
> 100 µM: [5]

O=C(Nc1nnc(-c2ccccc2)o1)C(SC(=S)N1CCCC1)c1ccccc1 (configuration not stated)
6.9 µM: [5]
inactive: [1] 26.4 µM | [2] 13.4 µM | [3] 30.6 µM | [6] 87.9 µM | [7] 14.1 µM | [8] 23.6 µM | [9] 31.3 µM | [10] 45 µM | [11] 32.1 µM | [19] 22.3 µM | [12] 36.4 µM | [13] 25.5 µM | [14] 36.8 µM | [15] 38.5 µM | [20] 40.8 µM | [16] 20.1 µM | [17] 49.1 µM | [18] 51.9 µM

NCCc1ccc(S(=O)(=O)O)cc1[N+](=O)[O-]
> 100 µM: [5]
inactive: [1] > 100 µM | [2] > 100 µM | [3] > 100 µM | [6] > 100 µM | [7] > 100 µM | [8] > 100 µM | [9] > 100 µM | [10] > 100 µM | [11] > 100 µM | [19] > 100 µM | [12] > 100 µM | [13] > 100 µM | [14] > 100 µM | [15] > 100 µM | [20] > 100 µM | [16] 4.71 µM | [17] > 100 µM | [18] > 100 µM

CO[C@@H]1C[C@H]2N3CC[C@@]2(c2cc4c(cc2C3)OCO4)[C@H]2O[C@@H]12
inactive: [1] > 100 µM | [2] > 100 µM | [3] > 100 µM | [4] > 100 µM | [6] > 100 µM | [7] > 100 µM | [8] > 100 µM | [9] > 100 µM | [10] > 100 µM | [11] 1.34 µM | [19] > 100 µM | [12] > 100 µM | [13] > 100 µM | [14] > 100 µM | [15] > 100 µM | [20] > 100 µM | [17] > 100 µM | [18] > 100 µM
> 100 µM: [5]

NC(Cc1ccccc1)C(=O)O (stereo not drawn) [DL-PHENYLALANINE]
inactive: [1] > 100 µM | [2] > 100 µM | [3] > 100 µM | [4] > 100 µM | [6] > 100 µM | [7] > 100 µM | [8] > 100 µM | [9] > 100 µM | [10] > 100 µM | [11] > 100 µM | [19] > 100 µM | [12] > 100 µM | [13] > 100 µM | [14] > 100 µM | [15] > 100 µM | [20] > 100 µM | [17] > 100 µM | [18] > 100 µM
> 100 µM: [5]
